Experimental data: US20260256925A1, “INDAZOLE DERIVATIVES AS ESTROGEN RECEPTOR DEGRADERS” (REGENTS OF THE UNIVERSITY OF MICHIGAN, priority 2022, published 2026)
pIC50: −log10 of the molar value.

Legend:
ER = biological target: T1, ER (Homo sapiens, UniProt P03372); assay: In-cell western blot analysis, relative ER percentage (compounds B1-B126); format: cell-based; settings: ER degradation, 16 hours, read-out: ICW DC50
T1 construct: endogenous in cells; probably T47D or MCF-7
T1 sequence (P03372 1-595): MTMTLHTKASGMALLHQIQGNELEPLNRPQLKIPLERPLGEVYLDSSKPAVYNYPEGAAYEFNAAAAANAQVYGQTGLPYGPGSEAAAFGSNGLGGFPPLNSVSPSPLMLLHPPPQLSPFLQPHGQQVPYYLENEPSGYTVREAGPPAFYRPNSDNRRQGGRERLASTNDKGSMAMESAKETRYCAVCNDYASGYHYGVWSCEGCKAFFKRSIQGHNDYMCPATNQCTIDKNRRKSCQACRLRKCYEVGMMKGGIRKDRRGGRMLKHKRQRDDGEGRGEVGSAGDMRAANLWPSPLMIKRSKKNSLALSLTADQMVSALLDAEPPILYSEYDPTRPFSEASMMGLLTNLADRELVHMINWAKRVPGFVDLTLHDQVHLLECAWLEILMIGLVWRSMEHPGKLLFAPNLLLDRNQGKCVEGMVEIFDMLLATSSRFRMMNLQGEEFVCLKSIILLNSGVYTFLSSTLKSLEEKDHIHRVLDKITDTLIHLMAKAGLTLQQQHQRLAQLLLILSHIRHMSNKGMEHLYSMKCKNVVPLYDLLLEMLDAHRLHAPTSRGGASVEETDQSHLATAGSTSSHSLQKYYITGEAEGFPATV
Summary of the method: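 Readout was a two-colour infrared in-cell western of formaldehyde-fixed cells after 16 h compound exposure at 0.5% DMSO, with 40,000 or 10,000 cells/well plated the previous night. Relative ER percentage compares treated wells against untreated/DMSO-treated wells taken as 100%.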

[1] = Cell growth assay, WST-8 (compounds B1-B126); format: cell-based; settings: 96 h; T47D cell line, WST-8, 4 days; read-out: Cell growth inhibition in T47D cell line IC50
Summary of the method: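 Read-out is WST-8 absorbance at 450 nm (2.5 h, 37° C) as a fraction of vehicle control, from three separate repeats. Compound exposure lasted 4 days, starting one day after plating 1500 cells/well.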

SMILES	DC50 (ER) [nM]	pIC50 [1]
C[C@@H]1Cc2c(ccc3[nH]ncc23)[C@@H](c2c(F)cc(NC3CN(C(=O)CN4CCN5c6cc7c(cc6OC[C@@H]5C4)C(=O)N(C4CCC(=O)NC4=O)C7)C3)cc2F)N1CC(F)F (stereo partly drawn) [Compound B26, 3-((S)-3-(2-(3-((4-((6S,8R)-7-(2,2-difluoroethyl)-8-methyl-6,7,8,9-tetrahydro-3H-pyrazolo[4,3-f]isoquinolin-6-yl)-3,5-difluorophenyl)amino)azetidin-1-yl)-2-oxoethyl)-8-oxo-1,2,3,4,4a,5,8,10-octahydro-9H-pyrazino[1′,2′:4,5][1,4]oxazino[2,3-f]isoindol-9-yl)piperidine-2,6-dione]	< 10	> 9.00
C[C@@H]1Cc2c(ccc3[nH]ncc23)[C@@H](c2ccc(N3CC4(CCC(CN5CCN6c7cc8c(cc7OC[C@@H]6C5)C(=O)N(C5CCC(=O)NC5=O)C8)CC4)C3)cn2)N1CC(F)F (stereo partly drawn) [Compound B88, 3-((S)-3-((2-(6-((6S,8R)-7-(2,2-difluoroethyl)-8-methyl-6,7,8,9-tetrahydro-3H-pyrazolo[4,3-f]isoquinolin-6-yl)pyridin-3-yl)-2-azaspiro[3.5]nonan-7-yl)methyl)-8-oxo-1,2,3,4,4a,5,8,10-octahydro-9H-pyrazino[1′,2′:4,5][1,4]oxazino[2,3-f]isoindol-9-yl)piperidine-2,6-dione]	< 10	8.00 to 9.00
C[C@@H]1Cc2c(ccc3[nH]ncc23)[C@@H](c2ccc(N3CC4(CCN(C(=O)CN5CCC6(CC5)COc5c6ccc6c5CN(C5CCC(=O)NC5=O)C6=O)CC4)C3)cn2)N1CC(F)(F)F (stereo partly drawn) [Compound B64, 3-(1′-(2-(2-(6-((6S,8R)-8-methyl-7-(2,2,2-trifluoroethyl)-6,7,8,9-tetrahydro-3H-pyrazolo[4,3-f]isoquinolin-6-yl)pyridin-3-yl)-2,7-diazaspiro[3.5]nonan-7-yl)-2-oxoethyl)-6-oxo-6,8-dihydro-2H,7H-spiro[furo[2,3-e]isoindole-3,4′-piperidin]-7-yl)piperidine-2,6-dione]	< 10	> 9.00
C[C@@H]1Cc2c(ccc3[nH]ncc23)[C@@H](c2ccc(N3CCC4(CC3)CC(CN3CCN5c6cc7c(cc6OC[C@@H]5C3)C(=O)N(C3CCC(=O)NC3=O)C7)CO4)cn2)N1CC(F)(F)F (stereo partly drawn) [Compound B94, 3-((4aS)-3-((8-(6-((6S,8R)-8-methyl-7-(2,2,2-trifluoroethyl)-6,7,8,9-tetrahydro-3H-pyrazolo[4,3-f]isoquinolin-6-yl)pyridin-3-yl)-1-oxa-8-azaspiro[4.5]decan-3-yl)methyl)-8-oxo-1,2,3,4,4a,5,8,10-octahydro-9H-pyrazino[1′,2′:4,5][1,4]oxazino[2,3-f]isoindol-9-yl)piperidine-2,6-dione]	< 10	> 9.00
C[C@@H]1Cc2c(ccc3[nH]ncc23)[C@@H](c2ccc(N3CCC4(CC3)CC(CN3CCN5c6cc7c(cc6N(C)C[C@@H]5C3)C(=O)N(C3CCC(=O)NC3=O)C7)C4)cn2)N1CC(F)(F)F (stereo partly drawn) [Compound B61, 3-((S)-6-methyl-3-((7-(6-((6S,8R)-8-methyl-7-(2,2,2-trifluoroethyl)-6,7,8,9-tetrahydro-3H-pyrazolo[4,3-f]isoquinolin-6-yl)pyridin-3-yl)-7-azaspiro[3.5]nonan-2-yl)methyl)-8-oxo-2,3,4,4a,5,6,8,10-octahydropyrazino[1,2-a]pyrrolo[3,4-g]quinoxalin-9(1H)-yl)piperidine-2,6-dione]	< 10	> 9.00
C[C@@H]1Cc2c(ccc3[nH]ncc23)[C@@H](c2c(F)cc(N3CC4(CN(C(=O)CN5CCN6c7cc8c(cc7OC[C@@H]6C5)C(=O)N(C5CCC(=O)NC5=O)C8)C4)C3)cc2F)N1CC(F)F (stereo partly drawn) [Compound B34, 3-((S)-3-(2-(6-(4-((6S,8R)-7-(2,2-difluoroethyl)-8-methyl-6,7,8,9-tetrahydro-3H-pyrazolo[4,3-f]isoquinolin-6-yl)-3,5-difluorophenyl)-2,6-diazaspiro[3.3]heptan-2-yl)-2-oxoethyl)-8-oxo-1,2,3,4,4a,5,8,10-octahydro-9H-pyrazino[1′,2′:4,5][1,4]oxazino[2,3-f]isoindol-9-yl)piperidine-2,6-dione]	< 10	> 9.00
C[C@@H]1Cc2c(ccc3[nH]ncc23)[C@@H](c2c(F)cc(N3CCC4(CC3)CN(C(=O)CN3CCN5c6cc7c(cc6OC[C@@H]5C3)C(=O)N(C3CCC(=O)NC3=O)C7)C4)cc2F)N1CC(F)F (stereo partly drawn) [Compound B20, 3-((S)-3-(2-(7-(4-((6S,8R)-7-(2,2-difluoroethyl)-8-methyl-6,7,8,9-tetrahydro-3H-pyrazolo[4,3-f]isoquinolin-6-yl)-3,5-difluorophenyl)-2,7-diazaspiro[3.5]nonan-2-yl)-2-oxoethyl)-8-oxo-1,2,3,4,4a,5,8,10-octahydro-9H-pyrazino[1′,2′: 4,5][1,4]oxazino[2,3-f]isoindol-9-yl)piperidine-2,6-dione]	< 10	> 9.00
C[C@@H]1Cc2c(ccc3[nH]ncc23)[C@@H](c2c(F)cc(N3CC4(CCN(CC(=O)N5CCN6c7cc8c(cc7OC[C@@H]6C5)C(=O)N(C5CCC(=O)NC5=O)C8)C4)C3)cc2F)N1CC(F)F (stereo partly drawn) [Compound B40, 3-((S)-3-(2-(2-(4-((6S,8R)-7-(2,2-difluoroethyl)-8-methyl-6,7,8,9-tetrahydro-3H-pyrazolo[4,3-f]isoquinolin-6-yl)-3,5-difluorophenyl)-2,6-diazaspiro[3.4]octan-6-yl)acetyl)-8-oxo-1,2,3,4,4a,5,8,10-octahydro-9H-pyrazino[1′,2′:4,5][1,4]oxazino[2,3-f]isoindol-9-yl)piperidine-2,6-dione]	< 10	> 9.00
C[C@@H]1Cc2c(ccc3[nH]ncc23)[C@@H](c2ccc(N3CC4(CCC(CN5CCC6(CCOc7c6ccc6c7CN(C7CCC(=O)NC7=O)C6=O)CC5)CC4)C3)cn2)N1CC(F)(F)F (stereo partly drawn) [Compound B58, 3-(1-((2-(6-((6S,8R)-8-methyl-7-(2,2,2-trifluoroethyl)-6,7,8,9-tetrahydro-3H-pyrazolo[4,3-f]isoquinolin-6-yl)pyridin-3-yl)-2-azaspiro[3.5]nonan-7-yl)methyl)-7′-oxo-2′,3′,7′,9′-tetrahydro-8′H-spiro[piperidine-4,4′-pyrano[2,3-e]isoindol]-8′-yl)piperidine-2,6-dione]	> 100	> 9.00
C[C@@H]1Cc2c(ccc3[nH]ncc23)[C@@H](c2c(F)cc(NC3CC4(C3)CN(C(=O)CN3CCN5c6cc7c(cc6OC[C@@H]5C3)C(=O)N(C3CCC(=O)NC3=O)C7)C4)cc2F)N1CC(F)F (stereo partly drawn) [Compound B39, 3-((S)-3-(2-(6-((4-((6S,8R)-7-(2,2-difluoroethyl)-8-methyl-6,7,8,9-tetrahydro-3H-pyrazolo[4,3-f]isoquinolin-6-yl)-3,5-difluorophenyl)amino)-2-azaspiro[3.3]heptan-2-yl)-2-oxoethyl)-8-oxo-1,2,3,4,4a,5,8,10-octahydro-9H-pyrazino[1′,2′:4,5][1,4]oxazino[2,3-f]isoindol-9-yl)piperidine-2,6-dione]	< 10	> 9.00
